# Measurements taken from patent US9511112B2, “Antibacterial composition for topical use” (GENERAL TOPICS S.r.l., priority 2012, dated 2016).
# Where a name gives a salt, the structure may show the parent alone.
# Test system: bacterial population
# Assay: Microbiocidal activity by the same methods, triethyl citrate alone versus composition
# Assay type: cell-based
# Conditions: 4.5 w/w % in water q.s. to 100 w/w %, without the Peptide
smiles,measurement,value
"CCOC(=O)CC(O)(CC(=O)OCC)C(=O)OCC [triethyl citrate, triethyl-2-hydroxypropane-1,2,3-tricarboxylate]",survival of the bacterial population,25%
